Measurements published in patent US20040058380A1 (priority 2002, published 2004).
Like-named read-outs stand apart in the source and are kept apart here.

Experiments:
[1] = not given; remark: listed apart in the source
[2] = not given; remark: listed apart in the source
[3] = not given; remark: listed apart in the source

Cc1cc2nc3c(=O)[nH]c(=O)nc-3n(C[C@H](O)[C@H](O)[C@H](O)CO)c2cc1C [riboflavin]
potentiometric selectivity coefficient of DPA sensor (j: interference): 7.78

O=C(O)c1cccc(C(=O)O)n1 [DPA, pyridine-2,6-dicarboxylic acid]
DPA adsorbed in the sensor concentrated versus control (pH 7.2): 23 times

K2HPO4
potentiometric selectivity coefficient of DPA sensor (j: interference): 4.44

NC(Cc1c[nH]c2ccccc12)C(=O)O (racemic) [DL-tryptophan]
potentiometric selectivity coefficient of DPA sensor (j: interference): 2.22 × 10^−3

O=C(O)C[C@H](NC(=O)OCc1ccccc1)C(=O)O [N-CBZ-L-Asp]
potentiometric selectivity coefficient for D-isomer in the presence of L-isomer [1]: 4×10^−3 | L-Asp sensor output ([2]; 0.095 mM): 37 mV | L-Asp sensor output ([2]; 0.20 mM): 49 mV | L-Asp sensor output ([2]; 0.33 mM): 59 mV | L-Asp sensor output ([2]; 0.50 mM): 65 mV | L-Asp sensor output ([2]; 0.64 mM): 72 mV | L-Asp sensor output ([2]; 0.79 mM): 78 mV | L-Asp sensor output ([2]; 0.93 mM): 84 mV | L-Asp sensor output ([2]; 1.49 mM): 114 mV | L-Asp sensor output ([2]; 2.79 mM): 172 mV | L-Asp sensor output ([2]; 4.09 mM): 205 mV | L-Asp sensor output ([2]; 5.32 mM): 222 mV

NaCl
potentiometric selectivity coefficient of DPA sensor (j: interference): 20

KCl
potentiometric selectivity coefficient of DPA sensor (j: interference): 44.4

CaCO3
potentiometric selectivity coefficient of DPA sensor (j: interference): 2.22

O=C(O)C[C@@H](NC(=O)OCc1ccccc1)C(=O)O [N-CBZ-D-Asp]
D-Asp sensor output ([1]; 0.20 mM): 47 Mv | D-Asp sensor output ([1]; 0.33 mM): 55 Mv | D-Asp sensor output ([1]; 0.50 mM): 62 Mv | D-Asp sensor output ([1]; 0.64 mM): 68 Mv | D-Asp sensor output ([1]; 0.79 mM): 71 Mv | D-Asp sensor output ([1]; 0.93 mM): 76 Mv | D-Asp sensor output ([1]; 1.49 mM): 100 Mv | D-Asp sensor output ([1]; 2.79 mM): 158 Mv | D-Asp sensor output ([1]; 4.09 mM): 192 Mv | D-Asp sensor output ([1]; 5.32 mM): 203 Mv | potentiometric selectivity coefficient for L-isomer in the presence of D-isomer [2]: 9×10^−3 | potentiometric selectivity coefficient for N-CBZ-L-Asp with respect to N-CBZ-D-Asp ([2]; pH 6.8): 0.08

N[C@@H](Cc1ccc(O)cc1)C(=O)O [L-tyrosine]
potentiometric selectivity coefficient of DPA sensor (j: interference): 2.22 × 10^−3

O=C(O)C[C@@H](O)C(=O)O [D(+)-malic acid]
potentiometric selectivity coefficient of DPA sensor (j: interference): 35.56

COC(=O)C=C(C)OP(=O)(OC)OC [phosdrin]
potentiometric selectivity coefficient of MPA sensor to interferences [3]: 3.33 × 10^−4

O=P(O)(O)O [H3PO4]
potentiometric selectivity coefficient of MPA sensor to interferences [3]: 7.5×10^−3
